This test deals with T1, human κ opioid receptor (OPRK1) (Homo sapiens, UniProt P41145).
T1 construct: expressed in transfected cells; host or cells: CHO-K1
Description: Determination of activities of κ receptor agonists: inhibition of forskolin-stimulated cAMP release (HTRF) in stably transfected CHO-K1 cells. It is filed as cell-based. The note with it: for Relative Activity %: relative to Difelikefalin = 100.0. An excerpt: Gi-coupled human κ opioid receptor (OPRK1), upon stimulation with its specific opioid receptor agonists, can inhibit the intracellular adenylate cyclase pathway, and decrease cAMP levels. Forskolin can stimulate cAMP release in cell lines highly expressing opioid receptors. By stimulating cell lines stably transfected with opioid receptors, the inhibitory effect of a test compound on forskolin-stimulated cAMP release can be measured to determine the activity of the compound. The relative light units (RLU) from the cells after stimulation with different doses were measured via the homogeneous time-resolved fluorescence technique (HTRF), and the EC50 value of the agonist was subsequently calculated. This activity determination method is a currently commonly used method for determining the activities of opioid receptor agonists at home and abroad.
A CHO-K1 cell line stably expressing opioid receptors was used. Stably transfected cells were stimulated with various concentrations of agonists (under the stimulation of a certain concentration of forskolin). The relative light units from the cells after stimulation with different doses were measured, from which the EC50 value of the agonist was subsequently obtained by calculation.
A general note: In TR-FRET formats the signal depends on donor and acceptor labels being close together.

The mark [1] stands for this setting: CHO-K1 cell line stably expressing opioid receptors, forskolin-stimulated cAMP, HTRF, read-out: EC50.

Where two headings read alike, the source gives them in different places. Bridge positions count the residues as written; N and C are the ends. Square brackets hold non-standard residues; d marks the D form. Side chains are listed from the residue outwards. Peptide text beside a SMILES is read from it. I, II: the chains in the order shown. * marks the point of attachment. X12 = CCOc1ccc(C[C@@H](NC(=O)[C@H](N)Cc2ccccc2)C(=O)*)cc1; X5 = NCCCC[C@@H](NC(=O)CNC(=O)C1(N)CCN(*)CC1)C(N)=O; Piperidin1yl(4-NH2,4-COOH) = NC1(C(=O)O)CCN(*)CC1; Piperidinyl(4-NH2,4-CONH2) = NC(=O)C1(N)CCN(*)CC1; X1 = NCCCC[C@@H](NC(=O)C1(N)CCN(*)CC1)C(N)=O; X6 = NCCCC[C@H](NC(=O)C1(N)CCN(*)CC1)C(N)=O; dAla(cPr) = N[C@H](CC1CC1)C(=O)O; Api = NC1(C(=O)O)CCNCC1

T1 sequence (P41145 whole entry): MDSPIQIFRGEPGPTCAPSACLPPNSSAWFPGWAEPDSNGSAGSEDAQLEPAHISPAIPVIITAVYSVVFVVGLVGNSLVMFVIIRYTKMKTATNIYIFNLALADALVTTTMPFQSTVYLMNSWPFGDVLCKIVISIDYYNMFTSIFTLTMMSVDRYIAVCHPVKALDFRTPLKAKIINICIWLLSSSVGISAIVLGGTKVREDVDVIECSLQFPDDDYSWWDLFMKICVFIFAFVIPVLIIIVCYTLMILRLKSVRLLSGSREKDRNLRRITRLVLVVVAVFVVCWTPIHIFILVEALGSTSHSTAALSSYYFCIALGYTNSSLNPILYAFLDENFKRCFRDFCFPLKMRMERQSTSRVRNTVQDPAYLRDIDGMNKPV

Consider `CCOc1ccc(C[C@@H](NC(=O)[C@H](N)Cc2ccccc2)C(=O)N[C@H](CC(C)C)C(=O)N[C@H](CCCCN)C(=O)N2CCC(N)(C(=O)N[C@H](CCCCN)C(=O)N[C@H](CCCCN)C(=O)N[C@H](CCCCN)C(=O)N[C@H](CCCCN)C(=O)N[C@H](CCCCN)C(=O)N[C@H](CCCCN)C(N)=O)CC2)cc1` [Compound 25, D-Phe-D-Tyr(Et)-D-Leu-D-Lys-4-aminopiperidine-4-carboxamide-D-Lys-D-Lys-D-Lys-D-Lys -D-Lys-D-Lys-NH2] (H-[Api]([dK-dL-X12])[dK][dK][dK][dK][dK][dK]-NH2; N-terminus assumed), for which the EC50 stood at 0.0684 nM and the “Relative Activity %” value is 887.7%.

As to `CCOc1ccc(C[C@@H](NC(=O)[C@H](N)Cc2ccccc2)C(=O)N[C@H](CC(C)C)C(=O)N[C@H](CCCCN)C(=O)N2CCC(N)(C(=O)NCC(=O)N[C@H](CCCCN)C(N)=O)CC2)cc1` [Compound 49, D-Phe-D-Tyr(Et)-D-Leu-D-Lys-4-aminopiperidine-4-carboxamide-Gly-D-Lys-NH2] (H-[dF][dY](Et)[dL][dK]-X5; N-terminus assumed), the response was half-maximal at 0.0445 nM (EC50) and the “Relative Activity %” value stood at 1364.5%.

`CCOc1ccc(C[C@@H](NC(=O)[C@H](N)Cc2ccccc2)C(=O)N[C@H](CC(C)C)C(=O)N[C@H](CCCCN)C(=O)N2CCC(N)(C(=O)NCC(=O)NCC(=O)N[C@@H](CCCCN)C(N)=O)CC2)cc1` [Compound 51, D-Phe-D-Tyr(Et)-D-Leu-D-Lys-4-aminopiperidine-4-carboxamide-Gly-Gly-Lys-NH2] (I: H-[Api]GGK-NH2 / II: H-[dF][dY](Et)[dL][dK]; amide I:1-II:C; N-terminus assumed): the midpoint of the response, the EC50, lay at 0.0477 nM and the “Relative Activity %” value is given as 1273.0%.

On to `CCOc1ccc(C[C@@H](NC(=O)[C@H](N)Cc2ccccc2)C(=O)N[C@H](CC(C)C)C(=O)N[C@H](CCCCN)C(=O)N2CCC(N)(C(=O)NCC(=O)NCC(=O)N[C@H](CCCCN)C(=O)O)CC2)cc1` [Compound 54, D-Phe-D-Tyr(Et)-D-Leu-D-Lys-4-aminopiperidine-4-carboxamide-Gly-Gly-D-Lys-OH] (I: H-[Api]GG[dK]-OH / II: H-[dF][dY](Et)[dL][dK]; amide I:1-II:C; N-terminus assumed), for which the midpoint of the response, the EC50, lay at 0.0471 nM and the “Relative Activity %” value came out at 1289.2%.

`CCOc1ccc(C[C@@H](NC(=O)[C@H](N)Cc2ccccc2)C(=O)N[C@H](CC(C)C)C(=O)N[C@H](CCCCN)C(=O)N2CCC(N)(C(=O)NCC(=O)NCC(=O)NCC(=O)N[C@@H](CCCCN)C(=O)O)CC2)cc1` [Compound 56, D-Phe-D-Tyr(Et)-D-Leu-D-Lys-4-aminopiperidine-4-carboxamide-Gly-Gly-Gly-Lys-OH] (H-[Api]([dK-dL-X12])GGGK-OH; N-terminus assumed): the EC50 was 0.0506 nM and the “Relative Activity %” value stood at 1200.0%.

Take `CCOc1ccc(C[C@@H](NC(=O)[C@H](N)Cc2ccccc2)C(=O)N[C@H](CC(C)C)C(=O)N[C@H](CCCCN)C(=O)N2CCC(N)(C(=O)NCC(=O)NCC(=O)NCC(=O)N[C@H](CCCCN)C(N)=O)CC2)cc1` [Compound 57, D-Phe-D-Tyr(Et)-D-Leu-D-Lys-4-aminopiperidine-4-carboxamide-Gly-Gly-Gly-D-Lys-NH2] (H-[Api]([dK-dL-X12])GGG[dK]-NH2; N-terminus assumed): the EC50 stood at 0.0514 nM and the “Relative Activity %” value came to 1181.3%.

For the molecule `CCOc1ccc(C[C@@H](NC(=O)[C@H](N)Cc2ccccc2)C(=O)N[C@H](CC(C)C)C(=O)N[C@H](CCCCN)C(=O)N2CCC(N)(C(=O)NCC(=O)NCC(=O)NCC(=O)N[C@H](CCCCN)C(=O)O)CC2)cc1` [Compound 58, D-Phe-D-Tyr(Et)-D-Leu-D-Lys-4-aminopiperidine-4-carboxamide-Gly-Gly-Gly-D-Lys-OH] (H-[Api]([dK-dL-X12])GGG[dK]-OH; N-terminus assumed), the response was half-maximal at 0.0515 nM (EC50) and the “Relative Activity %” value stood at 1179.0%.

As for `CCOc1ccc(C[C@@H](NC(=O)[C@H](N)Cc2ccccc2)C(=O)N[C@H](CC(C)C)C(=O)N[C@H](CCCCN)C(=O)N2CCC(N)(C(=O)NCC(=O)NCC(=O)NCC(=O)NCC(=O)N[C@@H](CCCCN)C(N)=O)CC2)cc1` [Compound 59, D-Phe-D-Tyr(Et)-D-Leu-D-Lys-4-aminopiperidine-4-carboxamide-Gly-Gly-Gly-Gly-Lys-NH2] (H-[Api]([dK-dL-X12])GGGGK-NH2; N-terminus assumed), the response was half-maximal at 0.0694 nM (EC50) and the “Relative Activity %” value came out at 874.9%.

In the case of `CCOc1ccc(C[C@@H](NC(=O)[C@H](N)Cc2ccccc2)C(=O)N[C@H](CC(C)C)C(=O)N[C@H](CCCCN)C(=O)N2CCC(N)(C(=O)NCC(=O)NCC(=O)NCC(=O)NCC(=O)N[C@H](CCCCN)C(N)=O)CC2)cc1` [Compound 61, D-Phe-D-Tyr(Et)-D-Leu-D-Lys-4-aminopiperidine-4-carboxamide-Gly-Gly-Gly-Gly-D-Lys-NH2] (H-[Api]([dK-dL-X12])GGGG[dK]-NH2; N-terminus assumed), the midpoint of the response, the EC50, lay at 0.0706 nM and the “Relative Activity %” value worked out at 860.1%.

Consider `CCOc1ccc(C[C@@H](NC(=O)[C@H](N)Cc2ccccc2)C(=O)N[C@H](CC(C)C)C(=O)N[C@H](CCCCN)C(=O)N2CCC(N)(C(=O)NCC(=O)NCC(=O)NCC(=O)NCC(=O)NCC(=O)N[C@H](CCCCN)C(N)=O)CC2)cc1` [Compound 65, D-Phe-D-Tyr(Et)-D-Leu-D-Lys-4-aminopiperidine-4-carboxamide-Gly-Gly-Gly-Gly-Gly-D-Lys-NH2] (H-[Api]([dK-dL-X12])GGGGG[dK]-NH2; N-terminus assumed), for which the EC50 was determined as 0.0884 nM and the “Relative Activity %” value is on record as 686.9%.

Consider `CCOc1ccc(C[C@@H](NC(=O)[C@H](N)Cc2ccccc2)C(=O)N[C@H](CC(C)C)C(=O)N[C@H](CCCCN)C(=O)N2CCC(N)(C(=O)NCC(=O)NCC(=O)NCC(=O)NCC(=O)NCC(=O)N[C@H](CCCCN)C(=O)O)CC2)cc1` [Compound 66, D-Phe-D-Tyr(Et)-D-Leu-D-Lys-4-aminopiperidine-4-carboxamide-Gly-Gly-Gly-Gly-Gly-D-Lys-OH] (H-[Api]([dK-dL-X12])GGGGG[dK]-OH; N-terminus assumed), for which the response was half-maximal at 0.0895 nM (EC50) and the “Relative Activity %” value was found to be 678.4%.

In the case of `CCOc1ccc(C[C@@H](NC(=O)[C@H](N)Cc2ccccc2)C(=O)N[C@H](CC2CC2)C(=O)N[C@H](CCCCN)C(=O)N2CCC(N)(C(N)=O)CC2)cc1` [Compound 67, D-Phe-D-Tyr(Et)-D-cyclopropylalanine-D-Lys-4-aminopiperidine-4-carboxamide-NH2] (H-[dF][dY](Et)[dAla(cPr)][dK]-{Piperidinyl(4-NH2,4-CONH2)}; N-terminus assumed), the “Relative Activity %” value is given as 477.7%. Under setting [1], the EC50 amounted to 0.127 nM.

On to `CCOc1ccc(C[C@@H](NC(=O)[C@H](N)Cc2ccccc2)C(=O)N[C@H](CC2CC2)C(=O)N[C@H](CCCCN)C(=O)N2CCC(N)(C(=O)O)CC2)cc1` [Compound 68, D-Phe-D-Tyr(Et)-D-cyclopropylalanine-D-Lys-4-aminopiperidine-4-carboxamide-OH] (H-[dF][dY](Et)[dAla(cPr)][dK]-{Piperidin1yl(4-NH2,4-COOH)}; N-terminus assumed), for which the “Relative Activity %” value worked out at 483.4%. Further, the EC50 under setting [1] came to 0.126 nM.

Regarding `CCOc1ccc(C[C@@H](NC(=O)[C@H](N)Cc2ccccc2)C(=O)N[C@H](CC2CC2)C(=O)N[C@H](CCCCN)C(=O)N2CCC(N)(C(=O)N[C@@H](CCCCN)C(N)=O)CC2)cc1` [Compound 69, D-Phe-D-Tyr(Et)-D-cyclopropylalanine-D-Lys-4-aminopiperidine-4-carboxamide-Lys-NH2] (H-[dF][dY](Et)[dAla(cPr)][dK]-X6; N-terminus assumed), the “Relative Activity %” value amounted to 1432.1%. Besides, under setting [1], the EC50 was 0.0424 nM.

On to `CCOc1ccc(C[C@@H](NC(=O)[C@H](N)Cc2ccccc2)C(=O)N[C@H](CC2CC2)C(=O)N[C@H](CCCCN)C(=O)N2CCC(N)(C(=O)N[C@H](CCCCN)C(N)=O)CC2)cc1` [Compound 71, D-Phe-D-Tyr(Et)-D-cyclopropylalanine-D-Lys-4-aminopiperidine-4-carboxamide-D-Lys-NH2] (H-[dF][dY](Et)[dAla(cPr)][dK]-X1; N-terminus assumed), for which the EC50 was determined as 0.041 nM and the “Relative Activity %” value turned out to be 1481.0%.

In the case of `COc1ccc(C[C@@H](NC(=O)[C@H](N)Cc2ccccc2)C(=O)N[C@H](CC(C)C)C(=O)N[C@H](CCCCN)C(=O)N2CCC(N)(C(=O)O)CC2)cc1` [Compound 86, D-Phe-D-Tyr(Me)-D-Leu-D-Lys-4-aminopiperidine-4-carboxamide-OH] (H-[dF][dY](Me)[dL][dK]-{Piperidin1yl(4-NH2,4-COOH)}; N-terminus assumed), it took 0.121 nM to reach a half-maximal effect (EC50) and the “Relative Activity %” value is given as 501.0%.

With `COc1ccc(C[C@@H](NC(=O)[C@H](N)Cc2ccccc2)C(=O)N[C@H](CC(C)C)C(=O)N[C@H](CCCCN)C(=O)N2CCC(N)(C(=O)N[C@@H](CCCCN)C(N)=O)CC2)cc1` [Compound 87, D-Phe-D-Tyr(Me)-D-Leu-D-Lys-4-aminopiperidine-4-carboxamide-Lys-NH2] (H-[dF][dY](Me)[dL][dK]-X6; N-terminus assumed), the midpoint of the response, the EC50, lay at 0.0422 nM and the “Relative Activity %” value turned out to be 1438.9%.

Usually EC50 stands for the concentration at which the effect is half-maximal.

Values taken from patent publication US20260274891A1, “¿ OPIOID RECEPTOR AGONIST AND USE THEREOF” (CHENGDU AODA BIOTECHNOLOGY CO., LTD., priority 2023, published 2026).
